The record followed here is article PMC2932959 (Journal of medicinal chemistry, 2010).

Where only a bound is given, the exact number is not on record here.

In one assay the target is NET. The assay is classed as binding, rat. The note with it: selectivity ratio for SERT over NET.
A further assay has as its target DAT (Rattus norvegicus, UniProt P23977). The assay is classed as binding.

Sequence of DAT (P23977 whole entry): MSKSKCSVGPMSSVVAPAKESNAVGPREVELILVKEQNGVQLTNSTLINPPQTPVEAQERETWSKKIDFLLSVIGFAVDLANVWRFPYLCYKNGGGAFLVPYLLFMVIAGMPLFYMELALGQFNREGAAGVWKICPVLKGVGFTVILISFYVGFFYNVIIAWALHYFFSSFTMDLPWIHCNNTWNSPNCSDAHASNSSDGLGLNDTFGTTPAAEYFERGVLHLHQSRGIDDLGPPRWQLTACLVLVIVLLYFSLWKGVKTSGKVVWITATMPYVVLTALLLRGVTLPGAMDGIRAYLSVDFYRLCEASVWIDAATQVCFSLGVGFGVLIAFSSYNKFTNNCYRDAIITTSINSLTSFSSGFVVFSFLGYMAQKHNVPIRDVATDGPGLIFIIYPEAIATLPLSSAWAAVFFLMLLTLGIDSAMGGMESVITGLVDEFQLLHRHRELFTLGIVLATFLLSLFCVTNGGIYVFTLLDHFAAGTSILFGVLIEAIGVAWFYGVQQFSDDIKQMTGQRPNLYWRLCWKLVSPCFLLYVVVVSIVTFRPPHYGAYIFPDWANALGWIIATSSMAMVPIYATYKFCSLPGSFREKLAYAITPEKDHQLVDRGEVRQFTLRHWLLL

As for `COc1cccc(-c2ccc3c(c2)COC3(CCCN(C)C)c2ccc(F)cc2)c1` (stereo not shown) [Compound 11, 3-(1-(4-Fluorophenyl)-5-(3’-methoxyphenyl)-1,3-dihydroisobenzofuran-1-yl)-N,N-dimethylpropan-1-amine], the “Ki(NET)/Ki (SERT)” value on NET was determined as 284. Same read-out and setting: the figure for `CN(C)CCCC1(c2ccc(F)cc2)OCc2cc(-c3cc(F)cc(F)c3)ccc21.O=C(O)C(=O)O` (stereo not shown) [Compound 13, 3-(5-(3,5-Difluorophenyl)-1-(4-fluorophenyl)-1,3-dihydroisobenzofuran-1-yl)-N,N-dimethylpropan-1-amine oxalate] is 19; for `CN(C)CCCC1(c2ccc(F)cc2)OCc2cc(CCc3ccccc3)ccc21` (stereo not shown) [Compound 14, 3-(1-(4-Fluorophenyl)-5-phenethyl-1,3-dihydroisobenzofuran-1-yl)-N,N-dimethylpropan-1-amine] it is 122. The term Ki denotes a dissociation constant, usually derived from enzyme kinetics or from competition with a known ligand. A higher Ki goes with lower affinity. As to `CN(C)CCCC1(c2ccc(F)cc2)OCc2cc(Br)ccc21` (stereo not shown) [Compound 5, 3-(5-bromo-1-(4-fluorophenyl)-1,3-dihydroisobenzofuran-1-yl)-N,N-dimethylpropan-1-amine], the Ki at DAT came to 1.65 ± 0.112 µM. In addition, at DAT (selectivity ratio for SERT over DAT), the “Ki(DAT)/Ki (SERT)” value amounted to 1590. In addition, at NET, the “Ki(NET)/Ki (SERT)” value is reported as >10,000.

For `CN(C)CCCC1(c2ccc(F)cc2)OCc2cc(-c3cccc(F)c3)ccc21` (stereo not shown) [Compound 15, 3-(5-(3-Fluorophenyl)-1-(4-fluorophenyl)-1,3-dihydroisobenzofuran-1-yl)-N,N-dimethylpropan-1-amine], the “Ki(NET)/Ki (SERT)” value at NET stood at 193.
